The target of assay [1] is T1, βarr1 (Rattus norvegicus, UniProt P29066).
T1 construct: made in house
Kind of assay: Binding affinity (Kd) by ITC / thermal shift. The conditions noted are these: Cmpd-30 by ITC; other three by combination of ITC and thermal shift; read-out: Kd (dissociation constant), βarr1. Here is the method:
(§1) A high-throughput differential scanning fluorimetry-based thermal shift screen was developed to identify potential βarr small-molecule modulators present in the collection of structurally diverse, drug-like small-molecule compound library described above. The screen was performed using the StepOnePlus™ Real-Time PCR System (Applied Biosystems, Foster City, Calif.). Melting temperature changes were monitored with the use of a reporter fluorescent probe, SYPRO Orange (Thermo Fisher Scientific). Proteins were buffered in a 20 mM HEPES pH 7.5, 100 mM NaCl solution. All reactions were set up in a 96-well plate at final volumes of 20 μl. […] The temperature was raised with a step of 0.5° C. per 30 second from 25° C. to 99° C. and fluorescence readings were taken at each interval. Melting curves were directly exported from the instrument and were analyzed using Applied Biosystems® Protein Thermal Shift™ Software. Melting temperature (Tm) was calculated by plotting the first derivative of the fluorescence emission as a function of temperature [−dF/dT]. […]
(§2) ITC measurements were made using the MicroCal iTC200 system (MicroCal, Malvern, Pa.). […] Data were analyzed using MicroCal Origin software program to obtain association constant (Ka=1/Kd), stoichiometry (N), and thermodynamic parameters such as enthalpy (ΔH) and entropy (ΔS) of binding.
A general note: In ITC the heat of successive injections is recorded.

In assay [2] the test system is V2R. Description: BRET based receptor internalization assay. The conditions noted are these: V2R-expressing cells stimulated with AVP. The class given is cell-based. Here is the method:
BRET-based assays were performed to measure receptor internalization using two complementary bystander BRET-formats. First, the association of the receptor (β2V2R-RlucII or V2R-RlucII, BRET donor) with the early endosome (2×FYVE-mVenus, BRET acceptor) was directly measured following agonist stimulation as described previously (Smith, J. S. et al. C-X-C Motif Chemokine Receptor 3 Splice Variants Differentially Activate Beta-Arrestins to Regulate Downstream Signaling Pathways. Mol Pharmacol 92, 136-150, doi:10.1124/mol.117.108522 (2017)). Second, receptor internalization following agonist stimulation was determined by measuring BRET signal from labeled receptor (β2V2R-RlucII or V2R-RlucII, BRET donor) and plasma membrane component (myr-palm-mVenus, BRET acceptor). Cells were transfected with 2.5 μg V2R-RlucII and 10 μg 2×FYVE-mVenus or 2 μg of myr-palm-mVenus using FuGENE HD (Promega, Madison, Wis.) in an individual 10 cm dish. ˜24 hours post-transfection, cells were seeded in white 96-well clear-bottomed plates at a density of 75,000 cells per well. The following day cells were washed and the media was changed to Hanks' Balanced Salt Solution (HBSS) buffer supplemented with 10 mM HEPES for 1 hours at 37° C. Cells were pretreated with βarr modulating compounds (50 μM) or vehicle, then incubated for 30 min at 37° C. Cells were stimulated with increasing doses of agonist isoproterenol or arginine vasopressin (GenScript). Coelenterazine-h was added to the cells 5 min prior to BRET measurements to a final concentration of 5 μM. BRET measurements were performed using the Synergy2 (BioTek®) microplate reader with a filter set of 410/80 nm and 515/30 nm to detect the RlucII (donor) and mVenus (acceptor) light emissions, respectively. The BRET signal was determined by calculating the ratio of the light intensity emitted by the acceptor over the light intensity emitted by the donor. Net BRET was calculated using this ratio and subtracting the same ratio measured from cells expressing only the BRET donor.
Background: Bioluminescence resonance energy transfer reports proximity on the nanometre scale.

In assay [3] the test system is β2AR. Description: FRET-based cAMP accumulation (ICUE2 HEK293 cells), receptor desensitization. The class given is cell-based. The conditions noted are these: ICUE cells pretreated with inhibitor. The protocol: The Epac2 (ICUE2) sensor contains a CFP and YFP FRET pair. HEK293 cells stably expressing the ICUE2 cells were plated in poly-D-lysine-coated black 96 well plates (Corning) at a cell density of 50,000 cells per well. 16 hours after plating, cells were PBS-washed, then incubated in HEPES-buffered saline solution (150 mM NaCl, 5 mM KCl, 1 mM MgCl2, 2 mM CaCl2, 10 mM glucose, and 10 mM HEPES, pH 7.4) for one hour.
A general note: cAMP levels reflect the balance of adenylyl cyclase and phosphodiesterase activity.

The target of assay [4] is βarr2 (Rattus norvegicus, UniProt P29067). Kind of assay: Binding affinity (Kd) by ITC / thermal shift. More on the design: made in house. The conditions noted are these: Cmpd-30 by ITC; other three by combination of ITC and thermal shift; read-out: Kd (dissociation constant), βarr2. The protocol:
as §1, with “μl. Small-molecule test compounds were plated from DMSO stock solutions into 96 well plates (1 compound/well) at a final compound concentration of 100 μM. The final DMSO concentration per well was 1%. βarr1 or βarr2 final concentration was maintained at 5 μM per well. Vehicle (DMSO), negative, and positive controls were also included in each plate. Negative controls contained SYPRO Orange in buffer by itself (no βarr protein). Three known βarr binders were individually tested under described assay conditions: ‘V2Rpp’, a phosphorylated peptide corresponding to the C-terminus of the vasopressin-2 receptor (V2R); Fab30, an antigen-binding fragment that recognizes V2Rpp bound active βarr conformation; and inositol hexakisphosphate (IP6). […].” for “μl.”
as §2

For assay [5], the target named is ERK2-βarr2 complex (Rattus norvegicus, UniProt P29067). Description: Pull-down of 3×Flag-ERK2 with βarr2. The class given is binding. The conditions noted are these: series of concentrations of compound. The protocol:
Given this surprising result on the ability of Cmpd-30 to activate ERK βarr1/2-dependent but receptor independent manner, next it was determined whether βarr2 and ERK2 can physically interact in the presence of Cmpd-30 by a pull-down assay. Purified 3×Flag-ERK2 was incubated with βarr2 in the presence of a series of concentrations of Cmpd-30 or vehicle.

Where a name gives a salt, the structure may show the parent alone.

Chain of βarr2 (P29067 whole entry): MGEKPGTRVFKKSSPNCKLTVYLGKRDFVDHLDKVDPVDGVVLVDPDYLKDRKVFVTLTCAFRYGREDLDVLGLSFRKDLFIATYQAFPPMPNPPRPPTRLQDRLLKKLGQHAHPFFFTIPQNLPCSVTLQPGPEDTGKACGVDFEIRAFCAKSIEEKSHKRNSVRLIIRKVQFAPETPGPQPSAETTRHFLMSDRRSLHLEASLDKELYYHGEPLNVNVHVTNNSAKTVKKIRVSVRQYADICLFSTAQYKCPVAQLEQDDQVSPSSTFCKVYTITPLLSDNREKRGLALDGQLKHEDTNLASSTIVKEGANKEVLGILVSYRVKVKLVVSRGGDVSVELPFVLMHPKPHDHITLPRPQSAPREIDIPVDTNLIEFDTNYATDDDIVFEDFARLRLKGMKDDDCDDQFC
T1 sequence (P29066 whole entry): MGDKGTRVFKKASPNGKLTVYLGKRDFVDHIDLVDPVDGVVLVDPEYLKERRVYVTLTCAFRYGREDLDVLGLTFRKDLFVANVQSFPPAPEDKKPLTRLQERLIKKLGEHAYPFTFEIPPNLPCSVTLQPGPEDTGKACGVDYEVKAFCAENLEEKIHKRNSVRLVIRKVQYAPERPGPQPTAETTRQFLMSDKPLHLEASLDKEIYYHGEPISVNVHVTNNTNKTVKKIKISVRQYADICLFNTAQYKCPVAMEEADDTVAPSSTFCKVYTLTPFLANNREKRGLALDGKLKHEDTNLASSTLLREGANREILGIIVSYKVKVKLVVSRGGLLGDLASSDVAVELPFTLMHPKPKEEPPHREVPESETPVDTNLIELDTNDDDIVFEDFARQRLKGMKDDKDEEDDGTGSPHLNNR
Chain of ERK2-βarr2 complex (P29067 whole entry): as the sequence (P29067 whole entry) above
Chain of ERK2-βarr2 complex (P28482 whole entry partner): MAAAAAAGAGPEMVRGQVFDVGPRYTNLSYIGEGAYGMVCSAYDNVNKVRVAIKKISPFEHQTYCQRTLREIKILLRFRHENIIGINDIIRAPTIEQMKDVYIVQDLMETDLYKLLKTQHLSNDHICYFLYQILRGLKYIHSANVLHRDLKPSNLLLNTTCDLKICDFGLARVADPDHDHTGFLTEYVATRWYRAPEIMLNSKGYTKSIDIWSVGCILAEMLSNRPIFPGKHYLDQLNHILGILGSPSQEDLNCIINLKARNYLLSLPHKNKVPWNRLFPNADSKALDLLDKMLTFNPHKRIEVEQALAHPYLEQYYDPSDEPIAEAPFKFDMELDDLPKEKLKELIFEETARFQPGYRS

As to `C=C1C(=O)C23[C@H](O)C1CC[C@H]2[C@]12COC3(O)[C@@H](O)[C@@H]1C(C)(C)CC[C@@H]2O` [Cmpd-5, (1R,2S,10S,11R,15S,18R)-9,10,15,18-tetrahydroxy-12,12-dimethyl-6-methylidene-17-oxapentacyclo[7.6.2.15,8.01,11.02,8]octadecan-7-one], the Kd (usually a measure of binding affinity in units of concentration) stood at 233 nM in assay [1] and 261 nM in assay [4]. Further, in assay [2], the “internalization of the receptor and association with early endosomes” value (“internalization” below) is recorded as “inhibit”. Besides, in assay [3], the “isoproterenol-stimulated cAMP accumulation vs untreated control cells” value was “increased cAMP accumulation”.
Consider `CN(C)c1n/c(=N/Cc2ccco2)ss1` [Cmpd-30, 5-(furan-2-ylmethylimino)-N,N-dimethyl-1,2,4-dithiazol-3-amine;hydrobromide], for which the dissociation constant Kd was determined as 9.3 nM in assay [1] and 2 nM in assay [4]. In assay [2], the “internalization” value was “inhibit”. Besides, the “isoproterenol-stimulated cAMP accumulation vs untreated control cells” value in assay [3] is “increased cAMP accumulation”. For the same compound, in assay [5], the ERK2-βarr2 complex formation result is “forms a complex in vitro with βarr2 in a Cmpd-30-dependent manner”.
Turning to `C=C1C(=O)OC2CC3(C)OC3CC/C(C)=C\C(OC(C)=O)C12` (stereo not drawn) [Cmpd-64, [(8Z)-3,8-dimethyl-12-methylidene-13-oxo-4,14-dioxatricyclo[9.3.0.03,5]tetradec-8-en-10-yl] acetate], in assay [2], the “internalization” value is reported as “inhibit”. Also, in assay [3], the “isoproterenol-stimulated cAMP accumulation vs untreated control cells” value is “increased cAMP accumulation”. Further, in assay [4], the Kd amounted to 104 nM.

(Values after patent US20220315574A1, “Beta-Arrestin-Modulating Compounds and Methods of Using Same” (Duke University, priority 2019, published 2022).)
